Test results as given in US9750259B2, “Pyroxasulfone and glutamine synthesis inhibitor compositions for weed control” (Valent U.S.A., priority 2014, dated 2017).

What was measured:
Palmer Amaranth [1] = test: Field test in Roundup Ready soybeans: control (kill) of emerged Palmer Amaranth, reading 14 DAT; format: in vivo, Amaranthus palmeri; details: post emergence, all treatments with MSO 1% v/v, glufosinate 593, pyroxasulfone 90, flumiclorac-pentyl 73 g active/ha, % printed in b55 only
Description: (§1) The following field test was conducted. Roundup Ready soybeans (Glycine max) were used in the test as the crop plant. All of the treatments contained MSO concentrate oil at 1% v/v.
(§2) When the test began, the test plot had weeds that were less than […] tall. Treatments were administered at the concentrations as follows. Glufosinate-ammonium was administered at 593 grams/hectare. Pyroxasulfone was administered at 90 grams/hectare throughout the experiment.
(§3) On 14 DAT, readings were taken to determine the survival of Palmer Amaranth. On 21 DAT, readings were taken to determine the residual control of Palmer Amaranth and Horseweed. Survival ratings were taken by counting the number of alive and dead plants at the time of the reading. All data was analyzed using Bartlett's test and with p value of […] for determining significance of the results. The Effect of Glufosinate and Pyroxasulfone on Weeds.”

Palmer Amaranth [2] = test: Field test in Roundup Ready soybeans: residual control of Palmer Amaranth, reading 21 DAT; format: in vivo, Amaranthus palmeri; details: all treatments with MSO 1% v/v, glufosinate 593, pyroxasulfone 90, flumiclorac-pentyl 73 g active/ha, % printed in b55 only
Description: as §1, §2, §3

Horseweed = test: Field test in Roundup Ready soybeans: control of Horseweed, reading 21 DAT; format: in vivo, Conyza Canadensis; details: all treatments with MSO 1% v/v, glufosinate 593, pyroxasulfone 90, flumiclorac-pentyl 73 g active/ha, % printed in b55 only
Description: as §1, §2, §3

Compound | Palmer amaranth (<2″ tall) control / kill rate (Palmer Amaranth [1]) [%] | Residual control of Palmer amaranth (Palmer Amaranth [2]) [%] | Horseweed (bolted) control / kill rate (Horseweed) [%]
Cn1nc(C(F)(F)F)c(CS(=O)(=O)C2=NOC(C)(C)C2)c1OC(F)F [pyroxasulfone, 3-[[[5-(difluoromethoxy)-1-methyl-3 (trifluoromethyl)-1H-pyrazol-4-yl]methyl]sulfonyl]-4,5-dihydro-5,5-dimethylisoxazole] | 5 | 99 | 
CP(=O)(O)CCC(N)C(=O)O (racemic) [glufosinate, DL-4-[hydroxy](methyl)phosphinoyl]-DL-homoalaninate] | 90 | 93 | 75
